Source: patent publication US8357655B2, “Wound healing peptides and methods of use thereof” (Tufts University, priority 2008, dated 2013)

Experiments:
Type in all cases: cell-based
[1] = system: capillary endothelial cells; test: in vitro wound healing assay, capillary endothelial cell migration; details: one and two hours post-injury; WHP 0.5 nM to 0.2 mM in DMEM with 1% bovine calf serum; vs control cultures (FIG. 1)
Procedure: In this assay, capillary endothelial cells were plated on tissue culture plastic and allowed to form a confluent monolayer. The monolayer was mechanically disrupted and non-adherent cells were removed, at which point the WHP was provided at a concentration within the range of sub-nanomolar (0.5 nM) to sub-millimolar (0.2 mM) in tissue culture media (DMEM with 1% bovine calf serum. Control cultures were incubated with serum alone, positive control test substances, e.g. basic fibroblast growth factor (bFGF viz, FGF2) and vascular endothelial growth factor (VEGF) (for capillary-derived endothelial cells); or heparin-binding epidermal-like growth factor (Hb-EGF) (for human skin derived keratinocytes). Other control cultures were incubated with either no peptide or a random peptide without wound healing or proliferative properties. The extent of endothelial cell migration in the WHP and control cultures was observationally determined at various time points following injury (e.g., thirty minutes, one hour, two hours, or more than two hours).

[2] = in vitro injury model, dose dependence; details: concentrations ranging from 1 to 1000 nM (FIG. 3)
Procedure: Referring to FIG. 3, the WHPs provided herein act in dose-dependent manner. A WHP, SEQ ID NO: 9, was provided in an in vitro injury model at concentrations ranging from 1 to 1000 nM.

[3] = system: human epidermal-derived keratinocytes; test: in vitro wound healing assay, keratinocyte post-injury motility; details: compared with HbEGF, growth factor known to be migration-inducing in keratinocytes (FIG. 2)
Procedure: Referring to FIG. 2, an in vitro wound healing assay was performed to compare the wound healing properties of two WHPs, SEQ ID NO: 3 and SEQ ID NO: 9, with a known potentiator of keratinocyte migration, heparin-binding EGF-like growth factor (HbEGF). In these experiments, confluent densities of human epidermal-derived keratinocytes were plated in vitro in defined media lacking WHPs or positive control substances. At time zero, all cultures are wounded mechanically and imaging of wounds was accomplished automatically using computer-assisted light microscope imaging. Cell cultures were injured mechanically by removing defined zones of living cells were then washed and test agents or control substances delivered. Cells recovering from injury were than quantifiably monitored using computer-assisted imaging and light microscopy. Post-injury motility was assessed using the migratory response of untreated injured cultures as a baseline for quantitative comparative analysis. Multiple experiments with multiple replicates are shown, standard deviation with error of the mean.

endothelial cells = test: endothelial cell proliferation assay; details: peptide at 1 nM; control cultures in 5% BCS DMEM (FIG. 5)
Procedure: The WHPs provided herein induce endothelial cell proliferation. […] Endothelial cells were plated at subconfluent concentrations and allowed to attach, then new culture media was provided in the presence or absence of a WHP; control cultures were grown in 5% BCS DMEM.

[4] = system: capillary endothelial cells; test: in vitro capillary morphogenesis (angiogenesis) assay; details: cells embedded in ECM-derived three-dimensional matrix, incubated twenty hours (FIG. 4)
Procedure: The WHPs provided herein are also useful in the promotion of capillary morphogenesis. […] Specifically, isolated capillary endothelial cells were embedded in an ECM-derived three-dimensional matrix that contained a WHP at a range of concentrations from the nanomolar (nM) to sub-millimolar (mM) (e.g., between 0.5 nM-0.2 mM) and incubated. […] In comparison, negative control cell populations (i.e., cells that were not exposed to a WHP but were exposed to serum containing media, which contains growth factors and other angiogenesis inducers) generally remained as individual cells during this timeframe at this population density.

DINECELSANL [SEQ ID NO: 9]
endothelial cell migration into the wound site [1]: substantially greater migration into the wound site | wound healing activity, dose dependence [2]: dose-dependent | keratinocyte post-injury motility [3]: equal or superior to the growth factor | endothelial cell proliferation (endothelial cells): increase in endothelial cell proliferation

bFGF: basic fibroblast growth factor, positive control growth factor
formation of capillary tube like structures / in vitro angiogenesis [4]: able to promote in vitro angiogenesis to a lesser extent than populations treated with a WHP

DINECEIGAPAGEETEVTVEGLEPG [SEQ ID NO: 3]
keratinocyte post-injury motility [3]: equal or superior to the growth factor | endothelial cell proliferation (endothelial cells): increase in endothelial cell proliferation
